One assay relates to p19ARF. The assay is described as follows: Induction of endogenous p19ARF protein in retrovirus-infected MEFs. Type of assay: cell-based, mouse. As to the method: Virus production and infection. Human kidney 293T cells were transfected with a helper ecotropic retrovirus plasmid defective in psi-2 packaging sequences, together with pSRα vectors containing murine DMP1, human c-Myc, human E2F-1, or human Ets1 cDNAs [Zindy, et al., Genes Dev. 12:2424-2433 (1998); Inoue and Sherr, J. Biol. Chem. 273:29188-29194 (1998)]. Viruses were harvested every 6 hours 24-72 hours after transfection, filtered and stored at 4° C. until used for infection [Zindy, et al., Genes Dev. 12:2424-2433 (1998)]. In order to construct a retroviral vector containing DMP1 linked to a mutated tamoxifen-responsive element of the estrogen receptor (DMP1-ER™), a 3′ 0.3 kb EcoNI DNA fragment of murine DMP1 cDNA was amplified by PCR using
RNA and protein expression. Quantitative RT-PCRs employed specific primers for murine ARF exon 1β (30 cycles) and for β-actin (20 cycles) used as a control [Zindy et al., Oncogene 15:203-211 (1997)]. […]
(§1) Based on the above observations, it was determined as to whether introduction of DMP1 would induce synthesis of the endogenous ARF protein in normal diploid fibroblast strains. […] Although the blot was normalized for protein input, the levels of p19^ARF induced by DMP1 were calculated to be 2-fold higher than those induced by Myc, because fewer cells were productively infected with the DMP1 virus in this experiment (see FIG. 15A).

A further assay relates to ARF-null MEFs. In words: BrdU incorporation / cell cycle arrest in ARF-null MEFs. In kind it is cell-based, mouse. As to conditions: retroviral infection. Here is the method: BrdU incorporation and immunofluorescence. Wild-type or ARF-null MEFs (4×10^4 cells) were seeded on gelatin-coated coverslips 16 hours before virus infection. Cells were infected three times with empty vector, or vectors expressing murine DMP1, human c-Myc, human E2F-1, or human Ets1. Cells were labeled 36 hours after virus infection with bromodeoxyuridine (BrdU, Sigma) for 14 hours in complete medium. For pulse labeling, MEFs were treated with 2 μM4-HT for 36 hours and labeled with BrdU for three hours at different intervals throughout the inductive phase. Cells were fixed in ice-cold methanol-acetone (1:1) for 10 min at −20° C. and then were stained with affinity-purified antibodies to DMP1 (AF) [Hirai and Sherr, Mol. Cell. […]
as §1

The target in a further assay is T1, GST-Ets2 fusion protein (Homo sapiens, UniProt P15036).
T1 construct: made in house; host or cells: bacteria
T1 sequence (P15036 363-443 limits assumed): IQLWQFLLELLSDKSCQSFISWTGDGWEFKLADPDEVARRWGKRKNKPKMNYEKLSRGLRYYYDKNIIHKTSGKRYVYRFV
In words: EMSA competition with bacterial GST-Ets2 fusion protein. Type of assay: binding. As to conditions: excess unlabeled oligonucleotide. Here is the method: Double-stranded oligonucleotides containing potential DMP1 binding sites (BS1 and BS2) and mutated versions (M1-M4) (FIG. 5B) are end-labeled with ^32P using the Klenow fragment of DNA polymerase and α-^32P-dATP (6000 Ci/mmol; Dupont NEN) (8). Nuclear extracts from mouse NIH-3T3 or CTLL cells are prepared with buffer containing 0.4 M NaCl (2). Mammalian cell extracts (15 μg protein) or Sf9 lysates (corresponding to 5×10^2 infected cells) containing ˜4 ng recombinant DMP1 are mixed with 3 ng of ^32P-labeled probe (1×10^5 cpm) in 15 ul Binding buffer containing 2.5 μg of poly(dI-dC) and 2.5 μg BSA and incubated at 4° C. for 30 minutes. For competition experiments, the indicated amounts of unlabeled oligonucleotides are added to the reactions before addition of the labeled probe. In some experiments, a bacterially produced GST-Ets2 fusion protein containing the complete Ets2 DNA-binding domain (10) is used in place of Sf9 extracts containing recombinant DMP1. Protein-DNA complexes are separated on nondenaturing 4% polyacrylamide gels as described (8). Where indicated, antiserum to DMP1 together with 2.5 μg salmon testis DNA (Sigma; used to reduce nonspecific DNA binding activity caused by serum addition) is preincubated with extracts for 30 minutes at 4° C. prior to initiation of binding reactions. Immune complexes are either removed by adsorption to protein A-Sepharose beads (immunodepletion experiments) or are allowed to remain (“supershift” experiments).
Using electrophoretic mobility shift assays (EMSA) performed after mixing a titrated excess (3 ng) of ^32P-end labeled BS1 probe with Sf9 lysates producing DMP1 (˜4 ng recombinant protein per reaction), a BS1-containing protein complex is detected that was competed with an excess of unlabeled BS1 oligonucleotide but not with mutant oligonucleotides M1 and M2 (FIG. 6A). […] More subtle mutations within this region may be tolerated, because high concentrations of M4 competed for BS1 binding to both Ets2 and DMP1 in subsequent studies (FIG. 5B and see below). DMP1 also binds a BS2 probe, and the binding is competed by excess BS2 or BS1 (FIG. 6B). In agreement with the site selection frequencies (FIG. 5A), binding of ^32P-BS1 under equivalent conditions was competed more efficiently by excess unlabeled BS1 than by BS2 (FIG. 6B). […] In agreement, Ets2 binding to BS1 could be competed with excess unlabeled BS1 and M3, but not by BS2 (FIG. 6C). Therefore, although both DMP1 and Ets2 can each bind to BS1 sequences, their exclusive interactions with BS2 and M3, respectively, help to distinguish DMP1 and Ets binding activities (summarized in FIG. 5B).

With “DMP1: murine cyclin D-associated myb-like transcription factor, 761 amino acids, SEQ ID NO:1”, the “levels of p19ARF induced relative to those induced by Myc” value with p19ARF (corrected for fraction of productively infected cells) stood at 2 fold. In addition, the ARF protein synthesis entry in the assay with p19ARF (early passage MEFs, retroviral infection) is recorded as “induced ARF protein synthesis”. For the same substance, the cell cycle arrest result in the assay with ARF-null MEFs is “refractory”.
Regarding “M3: DMP1 deletion mutant (NcoI), amino acids 1-458 of SEQ ID NO:1”, in the assay with GST-Ets2 fusion protein, the “competition for BS1 binding to Ets2” value was “competed”.

The values are drawn from patent publication US6673902B2, “Cyclin D binding factor, and uses thereof” (St. Jude Children's Research Hospital, priority 1996, dated 2004).
